The source of these data is patent US20170290878A1, “METHODS OF TREATING CANCER WITH TUBULYSIN CONJUGATES” (Endocyte, Inc., priority 2014, published 2017).

The test system of one data set is KB-PR10 tumors. Description: Antitumor activity on paclitaxel resistant KB-PR10 tumors in nu/nu mice. As to conditions: three times a week for two weeks. In kind it is in vivo. The procedure:
Four to six week-old female nu/nu mice (Harlan Sprague Dawley, Inc., Indianapolis, Ind.) were maintained on a standard 12 h light-dark cycle and fed ad libitum with folate-deficient chow (Harlan diet #TD00434, Harlan Teklad, Madison, Wis.) for the duration of the experiment. FR-positive paclitaxel resistant KB-PR10 cells were grown continuously as a monolayer, using folate-free RPMI medium (FFRPMI) containing 5% heat-inactivated fetal calf serum (HIFCS) at 37° C. in a 5% CO2/95% air-humidified atmosphere with no antibiotics. KB-PR10 cells (1×10^6 per nu/nu mouse) in 100 μL were injected in the subcutis of the dorsal medial area. […] Mice were treated with 20 mg/kg Paclitaxel, 2 μmol/kg EC145 (See WO2004/069159 for a description of EC145) or 1 μmol/kg Compound I on a three times a week for 2 weeks schedule when the tumors were approximately 100-145 mm^3, 101-129 mm^3 and 100-140 mm^3 in volume, respectively. The mice in the control groups received no treatment. […] All in vivo studies were performed in accordance with the American Accreditation Association of Laboratory Animal Care guidelines.

The next data set deals with ST040 Endometrial tumors. In words: Antitumor activity in Endometrial ST040 model. In kind it is in vivo, mice. The procedure: (§1) These materials were obtained from and studies were performed at South Texas Accelerated Research Therapeutics, 4383 Medical Drive, San Antonio, Tex. 78229
The subject of a further data set is ST024 Ovarian tumors. In words: Antitumor activity in Ovarian ST024 model. In kind it is in vivo, mice. The procedure:
as §1

In a further data set the test system is LU2505 tumors. In words: Antitumor activity in Huprime NSCLC PDX tumor model LU2505. In kind it is in vivo, mice. The procedure:
(§2) These studies were performed at Crown Bioscience (Beijing) Inc., Ground Floor, Light Muller Building, Changping Sector of Zhongguancun Scientific Park, No. 21 Huoju Road, Changping District, Beijing, P.R. China.

The test system of the next data set is LU1147 tumors. Description: Antitumor activity in Huprime NSCLC PDX tumor model LU1147. In kind it is in vivo, mice. The procedure: as §2
In another data set the test system is large KB tumors. Description: Antitumor activity in large KB tumor model. In kind it is in vivo, mice. As to conditions: EC1456 2 μmol/kg, three times a week for two weeks.
Another data set concerns ST502 TNBC tumors. Description: Antitumor activity in Triple Negative Breast Cancer (TNBC) ST502 model. In kind it is in vivo, mice. The procedure:
as §1

A further data set relates to ST738 TNBC tumors. In words: Antitumor activity in Triple Negative Breast Cancer (TNBC) ST738 model. In kind it is in vivo, mice. The procedure:
as §1

Data set [1] can be described thus: Phase 1 dose-escalation study: safety, DLT. In kind it is in vivo, human. The procedure:
Compound I was administered via IV bolus injection.

Setting [2] is: Paclitaxel 15 mg/kg, once a week for two weeks (SIW×2).
Setting [3] is: EC1456 2 μmol/kg, two times a week for two weeks.
Setting [4] is: EC1456 4 μmol/kg, once a week for two weeks.
[5] abbreviates: EC1456 1.5 μmol/kg, two times a week for two weeks (BIW×2).
Where [6] appears, read: EC1456 3 μmol/kg, once a week for two weeks (SIW×2).
Where [7] appears, read: EC1456 2 μmol/kg, two times a week for two weeks (BIW×2).
Where [8] appears, read: EC1456 4 μmol/kg, once a week for two weeks (SIW×2).
Setting [9] is: DL1 and DL2 (0.5 and 1.0 mg/m^2, BIW), 6 patients.
The mark [10] stands for this setting: Eribulin mesylate 1 mg/kg, once a week for two weeks (SIW×2).

Counter-ions that a name gives are not always drawn.

Description for large KB tumors: Female Balb/c nu/nu mice were fed ad libitum with folate-deficient chow (Harlan diet #TD01013) for the duration of the experiment. KB tumor cells were inoculated subcutaneously at the right flank of each mouse.
Growth of each s.c. tumor was followed by measuring the tumor two times per week. Tumors were measured in two perpendicular directions using Vernier calipers, and their volumes were calculated as 0.5×L×W^2, where L=measurement of longest axis in mm and W=measurement of axis perpendicular to L in mm.

For `CC(=O)O[C@H]1C(=O)[C@@]2(C)[C@H]([C@H](OC(=O)c3ccccc3)[C@]3(O)C[C@H](OC(=O)[C@H](O)[C@@H](NC(=O)c4ccccc4)c4ccccc4)C(C)=C1C3(C)C)[C@]1(OC(C)=O)CO[C@@H]1C[C@@H]2O` [Paclitaxel, reference compound], the anti-tumor activity entry in the data set on KB-PR10 tumors (paclitaxel 20 mg/kg) is “little to no anti-tumor activity”; with ST040 Endometrial tumors (setting [2]), “minimal anti-tumor activity”; with ST024 Ovarian tumors (setting [2]), “no anti-tumor activity”.
Take `CC(=O)O[C@@]12CO[C@@H]1C[C@H](O)[C@@]1(C)C(=O)[C@H](O)C3=C(C)[C@@H](OC(=O)[C@H](O)[C@@H](NC(=O)OC(C)(C)C)c4ccccc4)C[C@@](O)([C@@H](OC(=O)c4ccccc4)[C@H]21)C3(C)C` [Docetaxel]: in the data set on LU2505 tumors (Docetaxel 15 mg/kg, one dose), the “CR's” value is 2, the “PR's” value came out at 2, the anti-tumor activity result was “some anti-tumor activity” and the cures worked out at 2. Besides, in the data set with LU1147 tumors (Docetaxel 15 mg/kg, one dose), the “animals exhibiting stable disease” value came out at 2 animals and the anti-tumor activity result is on record as “minimal anti-tumor activity”.
Regarding `CCCC(=O)OCN(C(=O)[C@@H](NC(=O)[C@H]1CCCCN1C)C(C)CC)[C@H](C[C@@H](OC(C)=O)c1nc(C(=O)N[C@@H](Cc2ccc(O)cc2)C[C@H](C)C(=O)NNC(=O)OCCSSC[C@@H](NC(=O)[C@H](CCC(=O)NC[C@H](O)[C@@H](O)[C@H](O)[C@H](O)CO)NC(=O)[C@@H](CCC(=O)O)NC(=O)[C@H](CCC(=O)NC[C@H](O)[C@@H](O)[C@H](O)[C@H](O)CO)NC(=O)[C@@H](CCC(=O)O)NC(=O)[C@H](CCC(=O)NC[C@H](O)[C@@H](O)[C@H](O)[C@H](O)CO)NC(=O)CC[C@@H](NC(=O)c2ccc(NCc3cnc4nc(N)[nH]c(=O)c4n3)cc2)C(=O)O)C(=O)O)cs1)C(C)C` (some centres unmarked) [EC1456], the anti-tumor activity result was “no-anti-tumor activity” with KB-PR10 tumors (2 μmol/kg); “excellent anti-tumor activity” in the data set on large KB tumors; “slightly better anti-tumor activity” with ST040 Endometrial tumors (setting [5]); “slightly better anti-tumor activity” with ST040 Endometrial tumors (setting [6]); “no anti-tumor activity” with ST502 TNBC tumors (setting [7]); “no anti-tumor activity” in the data set with ST502 TNBC tumors (setting [8]). Further, the anti-tumor activity result in the data set on ST738 TNBC tumors (setting [7]) is “some anti-tumor activity”; with ST738 TNBC tumors (setting [8]) it was “some anti-tumor activity”; in the data set with ST024 Ovarian tumors (setting [7]) it was “curative”; with ST024 Ovarian tumors (setting [8]), “curative”. Also, the PRs in the data set with KB-PR10 tumors (EC1456 1 μmol/kg) is 60%. Besides, in the data set with KB-PR10 tumors (EC1456 1 μmol/kg), the antitumor activity entry is given as “good antitumor activity”. In addition, the cures is given as 40% in the data set with KB-PR10 tumors (EC1456 1 μmol/kg); 7 of 7 with LU2505 tumors (setting [3]); 7 of 7 with LU2505 tumors (setting [4]); 100% in the data set with large KB tumors (1000 mm^3 tumor group); 100% in the data set with large KB tumors (1400 mm^3 tumor group). Further, the “animals exhibiting stable disease” value was found to be 5 animals with LU1147 tumors (setting [3]) and 6 animals in the data set with LU1147 tumors (setting [4]). Further, the “animal exhibiting PR” value in the data set with ST040 Endometrial tumors (setting [5]) is 1 animal. The entries for the “partial response (PR)” value in the data set with ST040 Endometrial tumors (setting [6]) and in the data set with ST024 Ovarian tumors (setting [8]) were 1 and 2, respectively. Further, the “animals exhibiting PR's” value was 3 animals with ST738 TNBC tumors (setting [7]) and 5 animals with ST738 TNBC tumors (setting [8]). Also, the cure was found to be 2 with ST738 TNBC tumors (setting [7]) and 5 in the data set with ST024 Ovarian tumors (setting [8]). Further, the animals exhibiting cures with ST024 Ovarian tumors (setting [7]) and with ST024 Ovarian tumors (setting [8]) was 100% in each case. The “Grade 4 or treatment-related Grade 3 TEAEs” value in [1] (DL1 (0.5 mg/m^2, BIW)) is on record as “No Grade 4 or treatment-related Grade 3 TEAEs were observed”. For the same compound, in data set [1] (DL1 (0.5 mg/m^2, BIW)), the “severity of TEAEs (tinnitus, constipation, asthenia, ataxia, dizziness, orthostatic hypotension)” value is “mild and self-limited”. Moreover, in data set [1] (DL1 (0.5 mg/m^2, BIW), Grade 3 vomiting in cycle 6, attributed to a viral syndrome), the SAE entry is “one”. For the same compound, in [1] (setting [9]), the “deaths on treatment or within 30 days of study discontinuation, treatment related SAEs, DLTs” value is “No deaths occurred on treatment or within 30 days of study discontinuation, treatment related serious adverse events (SAEs) or DLTs”. For the same compound, in data set [1] (setting [9]), the “dose delays, omissions, or reductions due to toxicity” value is on record as “no dose delays, omissions, or reductions due to toxicity”. In addition, the SAEs result in data set [1] (DL2 (1.0 mg/m^2, BIW)) is listed as “no SAEs”. Also, the “severity of TEAEs (abdominal pain, diarrhea, vomiting, hypoglycemia, pain)” value in data set [1] (DL2 (1.0 mg/m^2, BIW)) is “mild and self-limited”. Also, the “≧Grade 3 TEAEs regardless of relatedness” value in [1] (DL2 (1.0 mg/m^2, BIW)) is “no ≧Grade 3 TEAEs observed”. Also, the “cumulative or late-emerging treatment-related AEs” value in data set [1] (either dose level (DL1, DL2)) was “no evidence of cumulative or late-emerging treatment-related AEs”.
In the case of `C=C1C[C@@H]2CC[C@@]34C[C@H]5O[C@H]6[C@@H](O3)[C@H]3O[C@H](CC[C@@H]3O[C@H]6[C@H]5O4)CC(=O)C[C@@H]3[C@@H](OC)[C@@H](C[C@H](O)CN)O[C@H]3C[C@H]3O[C@@H](CC[C@@H]1O2)C[C@@H](C)C3=C` [Eribulin mesylate, reference compound], in the data set on ST502 TNBC tumors (setting [10]), the “animal exhibiting PR” value came to 1 animal and the anti-tumor activity entry is “minimal anti-tumor activity”. Besides, in the data set with ST738 TNBC tumors (setting [10]), the “PR's” value was 2 and the anti-tumor activity entry is listed as “some anti-tumor activity”.
